In patent publication US20160137630A1, “INDUCTION OF GATA2 BY HDAC1 AND HDAC2 INHIBITORS” (ACETYLON PHARMACEUTICALS, INC., priority 2014, published 2016):
Where two headings read alike, the source gives them in different places.

Tests used:
[1] = test system: erythroblasts derived from CD34+ cells isolated from human bone marrow; assay: QRT-PCR time course of mRNA expression during erythroid differentiation; type: cell-based
Excerpt: Gata2 mRNA was induced while Gata1 mRNA was unaffected. The culture system was as described by Sankaran et al., “Human fetal hemoglobin expression is regulated by the developmental stage-specific repressor BCL11A”, Science, vol. 322(5909), pp. 1839-42 (2008).
Gata2 mRNA was induced while Gata1 mRNA was unaffected. The culture system as described by Bradner et al., PNAS, vol. 107(28), pp. 12617-22 (2010). […]
The cells were then differentiated by exposure to either vehicle or Compound 001. RNA was measured at days 0, 2, 3, 4, 5, 6, and 8.
Gata1 increased and Gata2 decreased in control cells during the 5 days differentiation period, a result consistent with the known expression pattern of these genes during erythropoiesis (FIG. 1C).

[2] = test system: HbD promoter; assay: Gata2 binding at the β-like globin gene cluster (ChIP-seq, ChIP-QPCR); type: cell-based
Excerpt: The tight temporal correlation between Gata2 and HbG activation following HDAC1/2 inhibition argues that Gata2 may affect the beta-globin locus directly. […] In FIG. 8C, the ChIP-seq results in FIG. 8A were validated in a second experimental series using QRT-PCR and two primer sets directed to the delta globin promoter. A primer set at the beta globin promoter was used as a control. […] This region is suspected in playing a role in switching from fetal to adult globin during development, as naturally occurring deletions of this region are associated with elevated fetal hemoglobin in adults (Sankaran V G, Xu J, Byron R, et al. A functional element necessary for fetal hemoglobin silencing. The New England journal of medicine. 2011; 365(9):807-814.).
To investigate this possibility, the β-like globin gene cluster was looked at in the Gata2 ChIP-seq data described above.

[3] = target: HDAC3 (Homo sapiens, UniProt O15379); assay: in vitro biochemical HDAC inhibition assay
Sequence of HDAC3 (O15379 whole entry): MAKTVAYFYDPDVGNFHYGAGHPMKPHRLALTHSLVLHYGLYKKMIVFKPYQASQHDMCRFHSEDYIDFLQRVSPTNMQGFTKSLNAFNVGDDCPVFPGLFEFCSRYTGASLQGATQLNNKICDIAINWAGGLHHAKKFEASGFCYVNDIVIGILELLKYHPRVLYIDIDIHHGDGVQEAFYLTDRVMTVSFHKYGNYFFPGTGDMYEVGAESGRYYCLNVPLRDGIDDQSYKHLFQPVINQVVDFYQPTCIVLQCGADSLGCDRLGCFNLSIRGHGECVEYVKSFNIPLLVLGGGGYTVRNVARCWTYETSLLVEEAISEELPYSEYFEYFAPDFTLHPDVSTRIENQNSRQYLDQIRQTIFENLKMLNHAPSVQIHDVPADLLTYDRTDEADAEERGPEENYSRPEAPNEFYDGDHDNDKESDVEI
Sequence of HDAC3 (Q9Y618 395-489 partner limits assumed): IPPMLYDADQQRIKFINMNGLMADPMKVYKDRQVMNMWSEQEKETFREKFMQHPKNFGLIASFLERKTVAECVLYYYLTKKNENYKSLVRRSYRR

[4] = test system: Gata2 regulatory regions; assay: Gata2 ChIP-seq at the Gata2 locus; type: cell-based; conditions: −1.8 kb region
Excerpt: As above, differentiation profiles of compound treated cells were highly similar to control cells (FIG. 23A). It was observed that Gata2 occupancy at the Gata2 locus is tightly correlated between K562 and primary erythroid progenitors. In both cases, binding was limited to the +9.5, −1.8, −2.8, and −3.9 kb regulatory regions (data not shown).

[5] = test system: human bone marrow mononuclear cells; assay: colony formation assays; conditions: 1 μM
[6] = test system: human bone marrow-derived CD34+ cells; assay: viability of expanded CD34+ cells; type: cell-based; conditions: 2 days of treatment
Excerpt: This possibility was first tested by measuring the viability of expanded human bone marrow-derived CD34+ cells, composed of primitive and more differentiated hematopoietic progenitors of multiple lineages, following 2 days of treatment with compound.

[7] = test system: BFU-E colonies derived from human bone marrow mononuclear cells; assay: % HbG mRNA in BFU-E colonies; type: cell-based; conditions: FIG. 18A
Excerpt: Increases in % HbG resulting from HDAC1/2 inhibition were due to increased HbG and decreased HbB (FIGS. 18B, 21D and 21E).

[8] = test system: CD34+ bone marrow cells undergoing erythroid differentiation; assay: Affymetrix GeneChip mRNA expression profiling; type: cell-based, human
Excerpt: The knockdown results were derived from an independent analysis of publically available raw data (Bradner et al., “Chemical genetic strategy identifies histone deacetylase 1 (HDAC1) and HDAC2 as therapeutic targets in sickle cell disease”, PNAS, vol. 107(28), pp. 12617-22 (2010)) and detection of mRNA by Affymetrix GeneChip.
Among the genes differentially regulated by both pharmacological inhibition and genetic ablation of HDAC1/2 were Bcl11a and Sox6, known HbG repressors, and Gata2, a potential HbG activator.
Then, the cells were differentiated by exposure to either vehicle (control) or Compound 001. FACS was performed at day 5. […] GlyA.
The mechanism through which HDAC1/2 inhibition induces HbG by performing gene expression profiling was interrogated. Because HDAC inhibition prevented cells from fully upregulating GlyA (FIG. 19E), RNA was isolated at day 5 of differentiation, a time point prior to the observed differentiation block.
Next, using the GeneChip data, a candidate gene approach was taken to determine which HbG modulators were changing as a result of both chemical and genetic HDAC1/2 inhibition (FIG. 1A). […] In contrast, other HbG repressors, such as Myb and Klf1 were unaffected. Expression changes were not observed for other genes involved in HbG regulation, including KDM1A (LSD1), NR2C1 (TR2) and NR2C2 (TR4), NR2F2 (COUP-TFII) and nuclear factor Y subunits, and proteins known to associate with Bcl11a12 (data not shown).

[9] = pharmacokinetics of Compound 001 in cynomolgus monkeys; type: in vivo; conditions: cynomolgus monkey, plasma, read-out: minimum drug exposure for the entire dosing period
Method: B. Cynomolgus monkey were dosed once daily by oral gavage for 5 consecutive days at 0 mg/kg, 25 mg/kg, or 75 mg/kg per dose (FIG. 25B). Sampling as described in ‘A’.
C. […] Points are the average of replicate animals, error bars are the standard deviation of replicate animals (FIG. 25C).

[10] = target: HDAC2 (Homo sapiens, UniProt Q92769); assay: in vitro biochemical HDAC inhibition assay
Sequence of HDAC2 (Q92769 whole entry): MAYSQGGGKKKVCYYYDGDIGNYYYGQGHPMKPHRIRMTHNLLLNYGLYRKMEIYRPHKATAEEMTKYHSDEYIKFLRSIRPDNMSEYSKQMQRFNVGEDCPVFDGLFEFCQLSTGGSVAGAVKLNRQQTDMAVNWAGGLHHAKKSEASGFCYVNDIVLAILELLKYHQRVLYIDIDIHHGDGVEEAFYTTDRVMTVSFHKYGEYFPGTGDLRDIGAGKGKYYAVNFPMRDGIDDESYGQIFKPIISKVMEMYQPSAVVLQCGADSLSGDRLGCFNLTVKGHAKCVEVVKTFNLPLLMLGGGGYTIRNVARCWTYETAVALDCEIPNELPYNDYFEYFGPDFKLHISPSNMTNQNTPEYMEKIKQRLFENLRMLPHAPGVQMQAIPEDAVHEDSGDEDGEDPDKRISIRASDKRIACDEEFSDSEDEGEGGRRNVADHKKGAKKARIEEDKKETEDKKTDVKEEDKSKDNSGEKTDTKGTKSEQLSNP

[11] = test system: sickle donor cells; assay: HbG induction in sickle donor cells; type: cell-based; conditions: peripheral blood mononuclear cells from four different donors; FIG. 11B
Excerpt: Then, the cells from each donor were differentiated by exposure to either vehicle (control) or Compound 001. RNA samples of HbG were taken from each group of donor cells at days 0, 3, and 5.

[12] = 1 μM for 6 days, culture conditions supporting late erythroblasts, FIG. 1C
[13] = 1 μM for 8 days, culture conditions supporting early erythroblasts, FIG. 1B
[14] = Compound 001 1 μM vs vehicle, day 5

With `Nc1ccc(-c2cccs2)cc1NC(=O)c1ccc2nc(N3CCNCC3)ccc2c1` [Compound 001, N-(2-amino-5-(thiophen-2-yl)phenyl)-2-(piperazin-1-yl)quinoline-6-carboxamide] the “Gata1 mRNA” value [1, 12] was “unaffected”, the “Gata2 mRNA” value [1, 12] was “induced” and the “Gata1 mRNA” value [1, 13] was “unaffected”. The “Gata2 mRNA” value [1, 13] was “induced”, the “Klf1 mRNA” value ([1]; QPCR, FIG. 1N) was “unaffected” and the “decrease in Bcl11a mRNA” value ([1]; QRT-PCR time course) was 2 fold. For the same compound, the “decrease in Sox6 mRNA” value ([1]; QRT-PCR time course) was 10 fold, the “increase in Gata2 mRNA” value ([1]; QRT-PCR time course) was 8 fold and the “Gata2 increase relative to control cells” value ([1]; day 2) was 2 fold. The “Gata2 increase relative to control cells” value ([1]; day 5) was 5 fold, the “increase in Gata2 binding at the HbD promoter region” value ([2]; ChIP-seq) was 1.8 fold and the “increase in Gata2 binding at the HbD promoter” value ([2]; independent ChIP-QPCR experiment) was 2 fold. For the same compound, the “selectivity over HDAC3” value [3] was “approximately 100 fold”, the IC50 ([3]; Table 2, read-out: IC50 HDAC3) was 114 nM and the IC50 ([3]; pre-incubation time of 24 hours, FIG. 9A, 17B, read-out: IC50 against HDAC3) was 1300 nM. For the same compound, the “maximum increase in Gata2 binding (peak height)” value [4] was 3 fold, the “number of CFU-E colonies” value [5] was “no effect” and the “number of CFU-GM colonies” value [5] was “no effect”. For the same compound, the “number of CFU-MK colonies” value [5] was “significantly suppressed”, the “size and number of BFU-E colonies” value [5] was “no effect” and the “fold less cytotoxic than Entinostat” value [6] was 10 fold. For the same compound, the IC50 ([6]; Homo sapiens, 48 h, FIG. 19A) was 45000 nM, the “% HbG” value [7] was “increased % HbG in a dose-dependent manner” and the “candidate gene expression ratio Bcl11a” value [8, 14] was 0.8. For the same compound, the “candidate gene expression ratio Gata1” value [8, 14] was 1.0, the “candidate gene expression ratio Gata2” value [8, 14] was 2.8 and the “candidate gene expression ratio KLF1” value [8, 14] was 0.9. For the same compound, the “candidate gene expression ratio Myb” value [8, 14] was 1.1, the “candidate gene expression ratio Sox6” value [8, 14] was 0.4 and the Bcl11a down-regulation ([8]; GeneChip, FIG. 1A) was 1.3 fold. For the same compound, the Gata2 up-regulation ([8]; GeneChip, FIG. 1A) was 2.8 fold, the Klf1 expression change ([8]; GeneChip, FIG. 1A) was “unaffected” and the Myb expression change ([8]; GeneChip, FIG. 1A) was “unaffected”. The Sox6 down-regulation ([8]; GeneChip, FIG. 1A) was 2.5 fold, the concentration at 5 days ([9]; high dose (75 mg/kg once daily oral gavage, 5 days)) was ≥ 5000 nM and the concentration at 5 days ([9]; low dose (25 mg/kg once daily oral gavage, 5 days)) was ≥ 1000 nM. For the same compound, the IC50 ([10]; Table 2, read-out: IC50 HDAC2) was 15 nM, the IC50 ([10]; pre-incubation time of 24 hours, FIG. 9A, 17B, read-out: IC50 against HDAC2) was 18 nM and the HbG [11] was “induced HbG”.
